From ChEMBL document CHEMBL1149848, “Prenylated flavonoid derivatives from the bark of Erythrina addisoniae” (J Nat Prod, 2008) come the findings set out here.

Active and inactive are the calls of the source. No cut-off for these calls is given here. Some results are limits rather than exact numbers.

What all share (assay type): functional, cell-based
Assay [1] in a line: Cytotoxicity against rat H4IIE cells after 24 hrs by MTT assay.
In assay [2] the test system is H4IIE. The assay can be described thus: Cytotoxicity against rat H4IIE cells assessed as nuclear fragmentation after 24 hrs by Hoechst staining.
Assay [3] has as its system H4IIE. The assay can be described thus: Cytotoxicity against rat H4IIE cells assessed as caspase-3/7 activation after 24 hrs by Apo-ONE assay.

The molecule `O=C1C[C@@H](c2ccc(O)cc2)Oc2cc(O)cc(O)c21` [NARINGENIN] had an IC50 in assay [1] greater than 100 µM.
On the same count and under the same terms, the figure for `COc1c(CC=C(C)C)cc([C@@H]2CC(=O)c3c(O)cc(O)cc3O2)cc1CC=C(C)C` is 5 µM.
Still for that read-out and setting: the figure for `O=C1C[C@@H](c2ccc(O)cc2)Oc2cc(O)ccc21` [LIQUIRTIGENIN] is greater than 100 µM.
In the case of `C=C(C)C(O)Cc1cc([C@@H]2CC(=O)c3c(O)cc(O)cc3O2)cc(CC=C(C)C)c1O` (some centres not stated) [ABYSSINOFLAVANONE VII], the outcome in the assay with H4IIE [2] and in the assay with H4IIE [3] was Active. In assay [1], this molecule gave an IC50 of 3.5 µM.
In turn, `CC(C)=CCc1cc([C@@H]2CC(=O)c3ccc(O)cc3O2)cc(CC=C(C)C)c1O` [ABYSSINONE IV] returned an IC50 in assay [1] of 15 µM. In other words, the double-digit micromolar range.

One may read the IC50 as the concentration that gives 50% inhibition. A higher IC50 goes with lower potency.
